Assay results reported in ChEMBL document CHEMBL1151187, “Antioxidant xanthones from Garcinia vieillardii” (J Nat Prod, 2004).
The source made the active and inactive calls. The rule behind the calls is not given here.

system: Radical scavenging activity; experiment: Antioxidant activity assessed as DPPH radical scavenging activity; assay type: functional

Compound | Activity
COc1ccc(O)c(C(C)(C)C)c1.COc1ccc(O)cc1C(C)(C)C | Active
C=CC(C)(C)c1c(O)cc(O)c2c(=O)c3ccc(O)c(O)c3oc12 | Active
C=C(c1c(OC)cc(O)c2c(=O)c3ccc(O)c(O)c3oc12)C(C)C | Active
